One test has as its target T1, hCRHR2 (Homo sapiens, UniProt Q13324).
T1 sequence (Q13324 1-411): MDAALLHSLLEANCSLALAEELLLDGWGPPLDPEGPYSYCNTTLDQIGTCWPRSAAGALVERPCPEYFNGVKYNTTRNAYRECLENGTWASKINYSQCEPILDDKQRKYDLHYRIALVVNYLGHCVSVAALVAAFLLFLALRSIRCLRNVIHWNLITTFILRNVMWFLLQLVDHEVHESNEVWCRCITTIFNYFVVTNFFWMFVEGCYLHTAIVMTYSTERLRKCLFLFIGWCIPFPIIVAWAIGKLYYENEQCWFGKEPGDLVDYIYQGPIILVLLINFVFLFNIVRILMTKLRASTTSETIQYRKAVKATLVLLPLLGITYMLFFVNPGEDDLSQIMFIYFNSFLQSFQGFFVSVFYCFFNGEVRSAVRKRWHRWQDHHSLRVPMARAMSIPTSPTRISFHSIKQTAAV
The test is described as follows: HTRF cAMP assay, determination of hCRHR2 potency (peptide libraries 5 conc., purified peptides 11 conc.). To be noted: read-out: hCRHR2 pEC50 (converted). In kind it is cell-based. The essentials: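 CHO-K1 cells stably expressing human CRHR2, thawed from frozen stocks just before use and run in suspension; cAMP measured by competitive HTRF immunoassay (cryptate anti-cAMP, d2-cAMP). Agonist peptides tested at 5 (libraries) or 11 (purified) concentrations; EC50 from sigmoid variable-slope nonlinear regression.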
For orientation: Time-resolved FRET reads energy transfer from a long-lived donor to a nearby acceptor.

A further test concerns the target T2, hCRHR1 (Homo sapiens, UniProt P34998).
T2 sequence (P34998 24-415): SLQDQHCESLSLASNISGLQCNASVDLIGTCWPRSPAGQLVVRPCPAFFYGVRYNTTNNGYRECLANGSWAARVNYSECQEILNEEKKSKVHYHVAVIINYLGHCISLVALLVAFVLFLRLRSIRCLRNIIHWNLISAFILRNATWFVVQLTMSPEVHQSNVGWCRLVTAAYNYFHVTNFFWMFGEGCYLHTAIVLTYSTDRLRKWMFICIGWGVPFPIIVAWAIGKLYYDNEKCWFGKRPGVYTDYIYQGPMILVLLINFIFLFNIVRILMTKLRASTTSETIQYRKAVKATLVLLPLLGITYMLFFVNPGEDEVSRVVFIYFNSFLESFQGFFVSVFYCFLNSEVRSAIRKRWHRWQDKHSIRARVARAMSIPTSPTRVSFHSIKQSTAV
The test is described as follows: HTRF cAMP assay, determination of hCRHR1 potency (peptide libraries 5 conc., purified peptides 11 conc.). In kind it is cell-based. Particulars: read-out: hCRHR1 pEC50 (converted). The essentials: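 CHO-K1 cells stably expressing human CRHR1, thawed from frozen stocks just before use, were stimulated in suspension with agonist peptides. cAMP was measured by HTRF competitive immunoassay (cryptate anti-cAMP antibody vs d2-cAMP).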

Setting [1] is: Table 4, library peptides having X^38 = Nle.
Setting [2] is: Table 3, matched molecular pairs X^38 L vs Nle, peptide library of Example 4.

Each structure is given as a SMILES string. Like-named read-outs stand apart in the source and are kept apart here. Starred links: 1 amine or outer side, 2 acyl side, 3 side chain; linkers in the order of their positions; H or OH if unused. Non-standard residues stand in square brackets, D forms with d. Residues, ends and D or L forms follow the SMILES beside them. Groups on a side chain read outwards from the residue. *: point of attachment. C20 diacid = O=C(O)CCCCCCCCCCCCCCCCCCC(=O)*; γGlu = O=C(O)[C@H](CCC(=O)[*:2])N[*:1]; NMeI = CC[C@H](C)[C@H](NC)C(=O)O; Nle = CCCC[C@H](N)C(=O)O; AEEA = NCCOCCOCC(=O)O; Aib = CC(C)(N)C(=O)O

`CCCC[C@H](NC(=O)[C@@H](NC(=O)[C@H](CCC(=O)O)NC(=O)[C@H](C)NC(=O)[C@H](CC(N)=O)NC(=O)C(C)(C)NC(=O)[C@H](CCCCNC(=O)COCCOCCNC(=O)COCCOCCNC(=O)CC[C@H](NC(=O)CC[C@H](NC(=O)CCCCCCCCCCCCCCCCCCC(=O)O)C(=O)O)C(=O)O)NC(=O)[C@H](C)NC(=O)[C@H](CCC(N)=O)NC(=O)[C@H](CCC(=O)O)NC(=O)[C@H](CCCNC(=N)N)NC(=O)[C@H](C)NC(=O)[C@H](C)NC(=O)[C@H](CCCNC(=N)N)NC(=O)[C@H](C)NC(=O)[C@H](CCCNC(=N)N)NC(=O)[C@H](C)NC(=O)[C@H](CCC(N)=O)NC(=O)CNC(=O)[C@H](CC(C)C)NC(=O)[C@H](CC(C)C)NC(=O)[C@@H](NC(=O)[C@H](CCC(N)=O)NC(=O)[C@H](CC(C)C)NC(=O)[C@H](CC(C)C)NC(=O)CNC(=O)[C@@H](NC(=O)[C@@H]1CCCN1C(=O)[C@@H](NC(=O)[C@H](CC(=O)O)NC(=O)[C@H](CC(C)C)NC(=O)[C@H](CO)NC(=O)[C@H](CC(C)C)NC(=O)[C@@H](NC(=O)[C@@H](NC)[C@@H](C)CC)C(C)C)C(C)C)[C@@H](C)CC)[C@@H](C)CC)[C@@H](C)CC)C(=O)N[C@@H](C)C(=O)N[C@@H](CCC(=O)O)C(=O)N[C@H](C(N)=O)C(C)C` [compound 123] (H-[NMeI]VLSLDVPIGLLQILLGQARARAAREQAK([AEEA-AEEA-γGlu-γGlu-C20 diacid])[Aib]NAEI[Nle]AEV-NH2): the EC50 on hCRHR2 (setting [1]) is 0.00501 nM; at hCRHR1 (setting [1]), 794 nM.
The corresponding values for `CCCC[C@H](NC(=O)[C@@H](NC(=O)[C@H](CCC(=O)O)NC(=O)C(C)(C)NC(=O)[C@H](CC(N)=O)NC(=O)[C@@H](NC(=O)[C@H](CCCCNC(=O)COCCOCCNC(=O)COCCOCCNC(=O)CC[C@H](NC(=O)CC[C@H](NC(=O)CCCCCCCCCCCCCCCCCCC(=O)O)C(=O)O)C(=O)O)NC(=O)[C@H](C)NC(=O)[C@H](CCC(N)=O)NC(=O)[C@H](CCC(=O)O)NC(=O)[C@H](CCCNC(=N)N)NC(=O)[C@H](C)NC(=O)[C@H](C)NC(=O)[C@H](CCCNC(=N)N)NC(=O)[C@H](C)NC(=O)[C@H](CCCNC(=N)N)NC(=O)[C@H](C)NC(=O)[C@H](CCC(N)=O)NC(=O)[C@H](Cc1ccccc1)NC(=O)[C@H](CC(C)C)NC(=O)[C@H](CC(C)C)NC(=O)[C@@H](NC(=O)[C@H](CCC(N)=O)NC(=O)[C@H](CC(C)C)NC(=O)[C@H](CC(C)C)NC(=O)CNC(=O)[C@@H](NC(=O)[C@@H]1CCCN1C(=O)[C@@H](NC(=O)[C@H](CC(=O)O)NC(=O)[C@H](CC(C)C)NC(=O)[C@H](CO)NC(=O)[C@H](CC(C)C)NC(=O)[C@@H](NC(=O)[C@@H](NC)[C@@H](C)CC)C(C)C)C(C)C)[C@@H](C)CC)[C@@H](C)CC)[C@@H](C)O)[C@@H](C)CC)C(=O)N[C@@H](C)C(=O)N[C@@H](CCC(=O)O)C(=O)N[C@H](C(N)=O)C(C)C` [compound 211] (H-[NMeI]VLSLDVPIGLLQILLFQARARAAREQAK([AEEA-AEEA-γGlu-γGlu-C20 diacid])TN[Aib]EI[Nle]AEV-NH2) are 0.0251 nM and 79400 nM.
As for `CCCC[C@H](NC(=O)[C@@H](NC(=O)[C@H](CCC(=O)O)NC(=O)C(C)(C)NC(=O)[C@H](CC(N)=O)NC(=O)[C@@H](NC(=O)[C@H](CCCCNC(=O)COCCOCCNC(=O)COCCOCCNC(=O)CC[C@H](NC(=O)CC[C@H](NC(=O)CCCCCCCCCCCCCCCCCCC(=O)O)C(=O)O)C(=O)O)NC(=O)[C@H](C)NC(=O)[C@H](CCC(N)=O)NC(=O)[C@H](CCC(=O)O)NC(=O)[C@H](CCCNC(=N)N)NC(=O)[C@H](C)NC(=O)[C@H](C)NC(=O)[C@H](CCCNC(=N)N)NC(=O)[C@H](C)NC(=O)[C@H](CCCNC(=N)N)NC(=O)[C@H](C)NC(=O)[C@H](CCC(N)=O)NC(=O)[C@@H](NC(=O)[C@H](CC(C)C)NC(=O)[C@H](CC(C)C)NC(=O)[C@@H](NC(=O)[C@H](CCC(N)=O)NC(=O)[C@H](CC(C)C)NC(=O)[C@H](CC(C)C)NC(=O)CNC(=O)[C@@H](NC(=O)[C@@H]1CCCN1C(=O)[C@@H](NC(=O)[C@H](CC(=O)O)NC(=O)[C@H](CC(C)C)NC(=O)[C@H](CO)NC(=O)[C@H](CC(C)C)NC(=O)[C@@H](NC(=O)[C@@H](NC)[C@@H](C)CC)C(C)C)C(C)C)[C@@H](C)CC)[C@@H](C)CC)C(C)C)[C@@H](C)O)[C@@H](C)CC)C(=O)N[C@@H](C)C(=O)N[C@@H](CCC(=O)O)C(=O)N[C@H](C(N)=O)C(C)C` [compound 231] (H-[NMeI]VLSLDVPIGLLQILLVQARARAAREQAK([AEEA-AEEA-γGlu-γGlu-C20 diacid])TN[Aib]EI[Nle]AEV-NH2), the values for the EC50 on hCRHR2 (setting [1]) and at hCRHR1 (setting [1]) were 0.0631 nM and 2510 nM, respectively.
As for `CCCC[C@H](NC(=O)[C@@H](NC(=O)[C@H](CCC(=O)O)NC(=O)[C@H](C)NC(=O)[C@H](CC(N)=O)NC(=O)[C@@H](NC(=O)[C@H](CCCCNC(=O)COCCOCCNC(=O)COCCOCCNC(=O)CC[C@H](NC(=O)CC[C@H](NC(=O)CCCCCCCCCCCCCCCCCCC(=O)O)C(=O)O)C(=O)O)NC(=O)[C@H](C)NC(=O)[C@H](CCC(N)=O)NC(=O)[C@H](CCC(=O)O)NC(=O)[C@H](CCCNC(=N)N)NC(=O)[C@H](C)NC(=O)[C@H](CO)NC(=O)[C@H](CCCNC(=N)N)NC(=O)[C@H](C)NC(=O)[C@H](CCCNC(=N)N)NC(=O)[C@H](C)NC(=O)[C@H](CCC(N)=O)NC(=O)[C@H](CCC(=O)O)NC(=O)[C@H](CC(C)C)NC(=O)[C@H](CC(C)C)NC(=O)[C@@H](NC(=O)[C@H](CCC(N)=O)NC(=O)[C@H](CC(C)C)NC(=O)[C@H](CC(C)C)NC(=O)CNC(=O)[C@@H](NC(=O)[C@@H]1CCCN1C(=O)[C@@H](NC(=O)[C@H](CC(=O)O)NC(=O)[C@H](CC(C)C)NC(=O)[C@H](CO)NC(=O)[C@H](CC(C)C)NC(=O)[C@@H](NC(=O)[C@@H](N)[C@@H](C)CC)C(C)C)C(C)C)[C@@H](C)CC)[C@@H](C)CC)[C@@H](C)O)[C@@H](C)CC)C(=O)N[C@@H](C)C(=O)N[C@@H](CCC(=O)O)C(=O)N[C@H](C(N)=O)[C@@H](C)CC` [SEQ ID NO: 36] (H-IVLSLDVPIGLLQILLEQARARSAREQAK([AEEA-AEEA-γGlu-γGlu-C20 diacid])TNAEI[Nle]AEI-NH2), the values for the EC50 at hCRHR2 (setting [2]) and at hCRHR1 (setting [2]) were 0.158 nM and 5010 nM, respectively.

Source of the values: EP4810052A2, “HCRHR2 SELECTIVE POLYPEPTIDES” (Gubra A/S, priority 2023, dated 2026).
